Measured values taken from US7192768B2, “Synchronization of the cytoplasmatic and the nuclear maturation of oocytes in vitro” (Novo Nordisk A/S, priority 2001, dated 2007).
Marks after values point to notes of the source that are not given here.

Columns and labels:
cultured mouse oocytes = settings: WO 98/28323; cited from earlier work
[1] = test system: cumulus-enclosed oocytes (CEO); test: FSH induced resumption of meiosis and cumulus expansion of hypoxanthine arrested mouse oocytes cultured in vitro (22-hydroxycholesterol); type: cell-based; set-up: Cumulus expansion: key to the marks not given beside the values
Procedure: Immature female mice (B6D2-F1 strain C57B1/2J) were kept under controlled light and temperature conditions with free access to food and water. Ovarian stimulation was performed when the mice weighed 10–16 grams and consisted of an intra-peritoneal injection of Gonadoplex (Leo, Copenhagen, Denmark) containing 7.5 U/mouse. The animals were killed by cervical dislocation 44–48 h later. The media used for the culture of oocytes consisted of α-Minimum Essential Medium (α-MEM), with Earles Balanced Salt Solution (EBSS), containing 4 mM hypoxanthine, 3 mg/ml bovine serum albumin, 0.23 mM pyruvate, 2 mM glutamine (all Sigma, U.S.A) and 100 IU/ml penicillin, 100 ug/ml Streptomycin. This medium was termed “HX-medium”. A media similar to the above but without HX are termed “maturation-medium”. Oocytes were isolated in HX-medium under a stereo microscope by manual rupture of follicles using a pair of 5.5-gauge needles. Spherical oocytes with intact cumulus cells connection and displaying germinal vesicle were categorized as cumulus-enclosed oocytes (CEO). Oocytes were rinsed 3 times in fresh HX-medium. Prior to each experimental set-up, all oocytes from 10–15 mice were pooled. Only oocytes with a germinal vesicle present were used and distributed in separate wells of a 4-well dish (Nuncoln, Denmark) containing 1 ml of HX-medium. Each well contained 20–30 oocytes and was cultured at 37° C. in 100% humidity in air with 5% CO2. Each experiment was repeated at least 4 times. At the end of the culture period (i.e 24 h), oocytes with GV or GVBD, or polar body (PB) were counted using an inverted microscope with differential interference contrast equipment (Leica, German). […]
Graduation of cumulus expansion: 0: No expansion, compact cumulus layer surrounding the oocyte; +: A slight cumulus expansion, the most peripheral cumulus cell looks a little fluffy; ++: good expansion of cumulus cell without a spherical cloud like expansion; +++: full cumulus expansion with a fluffy cloud like expansion with extended distance between the somatic cells.

[2] = test system: cumulus-enclosed oocytes (CEO); test: FSH induced resumption of meiosis of hypoxanthine arrested mouse oocytes cultured in vitro (ketoconazole); type: cell-based; settings: HX-medium; for % GVBD / % PB (PB/GVBD): 24 h
Procedure: Oocytes were obtained from immature mice (Kunming white mouse) weighing 14–16 g that were kept under controlled light and temperature conditions with free access to water. The mice received an intra peritoneal injection of 0.1 ml pregnant mare's serum gonadotrophin (PMSG, Sigma, New York, U.S.A) containing 10 IU PMSG. Forty-six hours later, the animals were killed by cervical dislocation. The ovaries were dissected out and placed in M199 culture medium (GIBCO, U.S.A) containing 4 mM hypoxanthine, 3 mg/ml bovine serum albumin, 0.23 mM pyruvate, 2 mM glutamine (all Sigma, U.S.A) and 100 IU/ml penicillin, 100 ug/ml Streptomycin. This medium was termed “HX-medium”. A media similar to the above but without HX are termed “maturation-medium”. Oocytes were isolated in HX-medium under a stereo microscope by manual rupture of follicles using a pair of 5.5-gauge needles. Spherical oocytes with intact cumulus cells connection and displaying germinal vesicle were categorized as cumulus-enclosed oocytes (CEO). Oocytes were rinsed 3 times in fresh HX-medium. Prior to each experimental set-up, all oocytes from 10–15 mice were pooled. Only oocytes with a germinal vesicle present were used and distributed in separate wells of a 4-well dish (Nuncoln, Denmark) containing 1 ml of HX-medium. Each well contained 20–30 oocytes and was cultured at 37° C. in 1000% humidity in air with 5% CO2. Each experiment was repeated at least 4 times. At the end of the culture period (i.e 24 h), oocytes with GV or GVBD, or polar body (PB) were counted using an inverted microscope with differential interference contrast equipment (Leica, German). The percentage of oocytes with GVBD per total number of oocytes (% GVBD) and the percentage of oocytes with PB formation per total number of oocytes (% PB) were calculated.

[3] = test system: cumulus enclosed mouse oocytes; test: FSH induced resumption of meiosis of mouse oocytes cultured in vitro (dbc-AMP control medium); type: cell-based; settings: for % GVBD / % PB (PB/GVBD): 22-24 h
Procedure: Immature female mice (B6D2-F1 strain C57B1/2J) were kept under controlled light and temperature conditions with free access to food and water. Ovarian stimulation was performed when the mice weighed 10–16 grams and consisted of an intra-peritoneal injection of Gonadoplex (Leo, Copenhagen, Denmark) containing 7.5 U/mouse. The animals were killed by cervical dislocation 44–48 h later. The media used for the culture of oocytes consisted of α-Minimum Essential Medium (α-MEM), with Earles Balanced Salt Solution (EBSS), 200 μM dibuturyl-cyclic-adenosine-mono-phosphate (dbc-AMP), 3 mg/ml Bovine Serum Albumin, 0,23 mM pyruvate, 2 mM glutamine, 100 IU/ml penicillin and 100 mg/ml streptomycin (i.e. control medium). The ovaries were recovered and oocytes isolated from the ovaries by puncturing individual follicles using a 25 gauge needle. The oocytes were washed 3 times in control medium before the start of each experiment. Cumulus enclosed oocytes were cultured separately in 4-well dishes (Nuncleon, Roskilde, Denmark), 0.4 ml medium in each well containing control medium or medium supplemented with ketoconazole in a 100% humidified atmosphere of 5% CO2 with 95% air at 37° C. The culture period was 22–24 h. By the end of the culture period, germinal vesicle breakdown (GVBD) was scored by examining the oocyte in an inverted microscope. The percentage of oocytes with GVBD per total number of oocytes (% GVBD) was calculated.

cumulus enclosed oocytes = settings: AY added to cumulus enclosed oocytes; cited from earlier work
human oocytes = settings: EGF 2 ng/ml, 30 h culture; cited from earlier work
[4] = 22-OH-cholesterole 1 μg/ml + FSH 75 IU/L, with fetal calf serum
[5] = 22-OH-cholesterole 1 μg/ml + FSH 75 IU/L, without fetal calf serum
[6] = 22-OH-cholesterole 5 μg/ml + FSH 75 IU/L, without fetal calf serum
[7] = 22-OH-cholesterole 10 μg/ml + FSH 75 IU/L, with fetal calf serum
[8] = 22-OH-cholesterole 10 μg/ml + FSH 75 IU/L, without fetal calf serum
[9] = 22-OH-cholesterole 25 μg/ml + FSH 75 IU/L, with fetal calf serum
[10] = 22-OH-cholesterole 25 μg/ml + FSH 75 IU/L, without fetal calf serum
[11] = ketoconazole 0.1 μM + FSH 50 IU/L
[12] = ketoconazole 1 μM + FSH 50 IU/L
[13] = ketoconazole 10 μM + FSH 50 IU/L
[14] = ketoconazole 100 μM + FSH 50 IU/L
[15] = ketoconazole 1000 μM + FSH 50 IU/L
[16] = ketoconazole 5 μM in medium with FSH 75 IU/L
[17] = ketoconazole 10 μM in medium with FSH 75 IU/L
[18] = ketoconazole 20 μM in medium with FSH 75 IU/L

Molecule: CC(C)CCC(O)[C@@H](C)[C@H]1CC[C@H]2[C@@H]3CC=C4C[C@@H](O)CC[C@]4(C)[C@H]3CC[C@]12C (some centres unmarked) [22-OH-cholesterole, 22-hydroxycholesterol]
- effect on FF-MAS induced resumption of meiosis (in words) (cultured mouse oocytes): can prevent a FF-MAS induced resumption of meiosis
- % GVBD [1, 4]: 41%
- % PB (PB/GVBD) [1, 4]: 29%
- Cumulus expansion [1, 4]: +++
- % GVBD [1, 5]: 62%
- % PB (PB/GVBD) [1, 5]: 25* %
- % GVBD ([1]; 22-OH-cholesterole 3 μg/ml alone (no FSH), without fetal calf serum, HX-medium, 24 h): 26%
- % GVBD [1, 6]: 72%
- % PB (PB/GVBD) [1, 6]: 26* %
- % GVBD [1, 7]: 39* %
- % PB (PB/GVBD) [1, 7]: 14* %
- % GVBD [1, 8]: 31* %
- % PB (PB/GVBD) [1, 8]: 11* %
- % GVBD [1, 9]: 19* %
- % PB (PB/GVBD) [1, 9]: 28* %
- % GVBD [1, 10]: 17* %
- % PB (PB/GVBD) [1, 10]: 0* %
- cumulus expansion with 22-hydroxycholesterol and FSH compared with FSH alone (in words) ([1]; tables 3 and 4, FSH 75 IU/L): occurs to similar degree
- effect on FSH induced resumption of meiosis (in words) ([1]; tables 3 and 4, FSH 75 IU/L): prevents oocytes from resuming meiosis in the presence of FSH

Molecule: CC(=O)N1CCN(c2ccc(OCC3COC(Cn4ccnc4)(c4ccc(Cl)cc4Cl)O3)cc2)CC1 (centres unmarked) [Ketoconazole, ketoconazole]
- % GVBD [2, 11]: 58%
- % PB (PB/GVBD) [2, 11]: 33%
- % GVBD [2, 12]: 48* %
- % PB (PB/GVBD) [2, 12]: 30%
- % GVBD [2, 13]: 35* %
- % PB (PB/GVBD) [2, 13]: 25%
- % GVBD [2, 14]: 20* %
- % PB (PB/GVBD) [2, 14]: 19* %
- % GVBD [2, 15]: 21* %
- % PB (PB/GVBD) [2, 15]: 17* %
- effect on FSH induced resumption of meiosis (in words) ([2]; ketoconazole with FSH 50 IU/L): prevents oocytes from resuming meiosis
- effect on PB formation (in words) ([2]; ketoconazole with FSH 50 IU/L): dose-dependant inhibition of PB formation
- % GVBD [3, 16]: 7%
- % PB (PB/GVBD) [3, 16]: 57%
- % GVBD [3, 17]: 7%
- % PB (PB/GVBD) [3, 17]: 8%
- % GVBD [3, 18]: 3%
- % PB (PB/GVBD) [3, 18]: 0%
- effect on FSH induced resumption of meiosis (in words) ([3]; ketoconazole 5-20 μM with FSH 75 IU/L): able to prevent oocytes resuming meiosis

Molecule: AY-9944-A-7
- accumulation of FF-MAS (in words) (cumulus enclosed oocytes): causes accumulation of FF-MAS
- resumption of meiosis (in words) (cumulus enclosed oocytes): dose-dependant induction of resumption of meiosis

Molecule: EGF: epidermal growth factor (NSDSECPLSHDGYCLHDGVCMYIEALDKYACNCVVGYIGERCQYRDLKWWELR; UniProt P01133 971-1023, looked up)
- number of germinal vesicle oocytes reaching metaphase II (in words) (human oocytes): enhanced
